# According to publication PMC5976192, “Design of a glutamine substrate tag enabling protein labelling mediated by Bacillus subtilis transglutaminase” (PLoS ONE, 2018):
# Target: T1, bTG (Bacillus subtilis transglutaminase) (Bacillus subtilis, UniProt P40746)
# T1 construct: gene tgl; recombinant, expressed in E. coli in active form and purified; about 28 kDa; construct details only in S1 File
# T1 sequence (P40746 1-245): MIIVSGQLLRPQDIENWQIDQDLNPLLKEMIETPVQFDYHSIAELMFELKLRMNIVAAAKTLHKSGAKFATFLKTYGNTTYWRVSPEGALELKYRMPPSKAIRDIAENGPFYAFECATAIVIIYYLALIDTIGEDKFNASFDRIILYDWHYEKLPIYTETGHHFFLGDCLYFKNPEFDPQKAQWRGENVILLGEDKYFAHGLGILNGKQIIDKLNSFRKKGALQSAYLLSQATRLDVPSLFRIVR
# Test: GDH-coupled assay; fluorescent labelling on SDS-PAGE
# Type: biochemical
# Conditions: acyl acceptor at 5 mM; 0.8 μM Q-tagged mRuby2 as acyl donor; 0.1 U bTG; 20 min; gel labelling 3 h at 37 °C; initial rates only
smiles,measurement,value
CN(C)c1cccc2c(S(=O)(=O)NCCCCCN)cccc12 [dansyl-cadaverine],GDH-coupled assay; fluorescent labelling on SDS-PAGE,initial rates of transamidation between Q-tagged mRuby2 and dansyl-cadaverine were measured using the GDH-coupled assay
